How the values were obtained:
[1] = tested on: MDA-MB-231 human breast cancer cells; experiment: MTT cell viability assay; assay type: cell-based; conditions: MDA-MB-231, 48 h, for MCs expressed as encapsulated chrysin content, read-out: IC50 (inhibitory concentration of chrysin for 50% viability)
Procedure: Epithelial human breast cancer MDA-MB-231 cells were grown in Dulbecco’s Modified Eagle′s—Medium (DMEM) growth medium (pH 7.4) supplemented with 10% Fetal Bovine Serum (FBS) and 50 µg·mL^−1 gentamycin at 37 °C in a 5% humidified CO2 incubator.
In the present study, the cell viability of MDA-MB-231 breast cancer line was evaluated via the MTT assay. The method relies on the conversion of the yellow 3-(4,5-dimethylthiazol-2-yl)-2,5-diphenyl tetrazolium bromide (MTT) to purple formazan crystals. The reduction of MTT is catalyzed by the mitochondrial dehydrogenase enzyme and is therefore a measure for cell viability. MDA-MB-231 cells were exposed to free chrysin, ChrPCL/PVAMCs, or ChrPHB/PVAMCs in their exponential phase of growth. More specifically, in a 96-well plate (Corning, NY, USA), a number of 1 × 10^4 cells/well were seeded, and after 24 h (80% confluency) they were treated with different concentrations of ChrPCL/PVAMCs or ChrPHB/PVAMCs ranging between 0–400 µg·mL^−1. Due to the different loading capacity of chrysin in each type of MCs, free chrysin (dissolved in DMSO) was added accordingly, in equal concentrations (µM), with the encapsulated chrysin in the MCs, as estimated in Section 3.5. […] Finally, a Synergy HTX BioTEK plate reader (with a reference wavelength of 630 nm) was used to determine the absorbance measurement at 545 nm. […]

[2] = tested on: human blood samples; experiment: Blood profile analysis (hematological parameters); assay type: cell-based; conditions: human blood, 5, 80 and 200 µg·mL^−1, 37 °C, 1 h
Procedure: (§1) Human blood samples were freshly collected from ten healthy volunteers and divided into tubes containing the anticoagulant agent ethylenediamine tetraacetic acid (EDTA), according to the protocols approved by the National Institute of Health and the Food and Drug Administration.
The blood profile analysis was performed using an automatic hematological analyzer Beckman Coulter ACT 5 Diff OV, (Beckman Coulter International S.A., Nyon, Switzerland) for the determination of different hematological parameters, such as red blood cells (RBCs) count ([…]), hemoglobin (HGB) g·dL^−1), hematocrit (HCT) (%), mean corpuscular volume (MCV) (in femtoliters, fl), mean corpuscular hemoglobin (MCH) (pg), mean corpuscular hemoglobin concentration (MCHC), red cell distribution width (RDW), white blood cells (WBCs) (10^9/L), neutrophils (NE) (%), lymphocytes (LY) (%), monocytes (MO) (%), eosinophils (EO) (%), basophils (BA) (%), and platelets (PLTs) (10^9/L), after exposure to free chrysin, ChrPCL/PVAMCs, or ChrPHB/PVAMCs, and without exposure to any agent. Briefly, the sample preparation was performed as follows: A 100 µL sample of whole blood was added to 900 µL of PBS. Then, either chrysin, ChrPCL/PVAMCs, or ChrPHB/PVAMCs were added to this diluted blood to achieve three concentrations: low, high, and very high (5, 80, and 200 µg·mL^−1, respectively). […]

[3] = Hemolysis assay; assay type: cell-based, human; conditions: human, washed human red blood cells (RBC suspension), pH 7.2, 24 h, 37 °C, free chrysin solution in DMSO (5%), read-out: Percentage of Hemolysis
Procedure: as §1
(§2) The hemocompatibility of free chrysin and the produced micro-formulations was evaluated via the hemolysis assay performed using a biochemical analyzer Konelab 30, Thermo Scientific. The experimental procedure was as follows: Whole blood samples were centrifuged for 10 min at 1500 rpm to remove plasma. The obtained cell pellets were washed three times with sterile PBS (10 mM, pH 7.2) to separate the red blood cells (RBCs) from other blood components, such as the white blood cells, plasma proteins, and excess antibodies, centrifuged and finally re-suspended at 5 mL PBS. The hemolysis assay was performed by adding 100 µL of the RBC suspension to 900 µL of PBS, containing several concentrations (5, 20, 40, 60, 80, 100, 200, 300, 400, 500 µg·mL^−1) of free chrysin, ChrPCL/PVAMCs, or ChrPHB/PVAMCs. The positive (+) control sample of hemolysis used (100% hemolysis) consisted of 900 µL of ultrapure water and 100 µL of washed RBCs. The negative (−) control sample (0% hemolysis) consisted of 900 µL PBS and 100 µL of washed RBCs. PBS and PBS containing either free chrysin, ChrPCL/PVAMCs, or ChrPHB/PVAMCs were used as blank samples. All samples were incubated for 24 h at 37 °C, under agitation at 120 rpm. After incubation, they were centrifuged at 700 rpm for 5 min, and the absorbance of the supernatant was measured at 541 nm. The % hemolysis was calculated after subtracting the blank values, and by setting the control (+) value as 100% of hemolysis. The absorbance was transformed to hemolysis percentage using the following equation: Percentage of hemolysis (%)=ODSample − ODNegative control/ODPositive control − ODNegative control where OD stands for Optical density.

[4] = tested on: human RBCs; experiment: Hemolysis assay; assay type: cell-based
Procedure: as §1, §2

For `O=c1cc(-c2ccccc2)oc2cc(O)cc(O)c12` [chrysin, 5,7-dihydroxyflavone], the IC50 [1] was 112 µM, the “PLT values compared to negative control” value [2] was “significant decrease” and the “hematological parameters (RBCs, HGB, HCT, MCV, MCH, MCHC, RDW, WBCs, NE, LY, MO, EO, BA) compared to negative control” value [2] was “did not display significant deviation”. For the same molecule, the hemolysis at 24 h, 5 µg·mL^−1 ([3]; 5 µg·mL^−1) was 1.2%, the hemolysis at 24 h, 20 µg·mL^−1 ([3]; 20 µg·mL^−1) was 2.1% and the hemolysis at 24 h, 40 µg·mL^−1 ([3]; 40 µg·mL^−1) was 2.7%. For the same molecule, the hemolysis at 24 h, 60 µg·mL^−1 ([3]; 60 µg·mL^−1) was 3%, the hemolysis at 24 h, 80 µg·mL^−1 ([3]; 80 µg·mL^−1) was 3.5% and the hemolysis at 24 h, 100 µg·mL^−1 ([3]; 100 µg·mL^−1) was 6.8%. It also gave a hemolysis at 24 h, 200 µg·mL^−1 ([3]; 200 µg·mL^−1) of 7%, a hemolysis at 24 h, 300 µg·mL^−1 ([3]; 300 µg·mL^−1) of 7.3% and a hemolysis at 24 h, 400 µg·mL^−1 ([3]; 400 µg·mL^−1) of 7.9%. The hemolysis at 24 h, 500 µg·mL^−1 ([3]; 500 µg·mL^−1) was 8.2%, the “hemoglobin release from RBCs (micrographs)” value ([4]; 500 µg·mL^−1) was “hemoglobin release from RBCs is obvious” and the hemolytic activity ([4]; concentrations between 100 and 500 µg·mL^−1, diluted in 5% DMSO) was “greater than 5%”.

Source: PMC7831015, “Evaluation of the Hemocompatibility and Anticancer Potential of Poly(ε-Caprolactone) and Poly(3-Hydroxybutyrate) Microcarriers with Encapsulated Chrysin” (Pharmaceutics, 2021)
